These results are taken from patent US12227496B2 (BRISTOL-MYERS SQUIBB COMPANY, priority 2019, dated 2025).

The assay addresses T1, human FXR (Homo sapiens, UniProt Q96RI1).
T1 construct: expressed in transfected cells; host or cells: HEK293 cells stably carrying a 5xGal4-response-element firefly luciferase reporter, transiently transfected with pcDNA3.1-Gal4-FXR
T1 sequence (Q96RI1 262-486 limits assumed): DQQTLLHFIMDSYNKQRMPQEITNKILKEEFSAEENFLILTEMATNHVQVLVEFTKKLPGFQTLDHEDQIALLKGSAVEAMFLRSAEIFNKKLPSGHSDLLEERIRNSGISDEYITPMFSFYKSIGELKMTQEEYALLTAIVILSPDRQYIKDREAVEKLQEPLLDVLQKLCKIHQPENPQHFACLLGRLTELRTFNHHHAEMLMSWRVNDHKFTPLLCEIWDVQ
Nature of the assay: transient human FXR/Gal4-luciferase reporter assay. Format: cell-based. Conditions: Gal4-hFXR LBD fusion, luciferase reporter in HEK293 cells; response relative to 8 μM GW-4064. The procedure:
A Gal4-hFXR fusion construct reporter system was used as the primary assay to characterize compound activity. A construct including 5 copies of the Gal4 promoter response element upstream of a firefly luciferase reporter cDNA was stably expressed in HEK293 cells. This reporter cell line was maintained in Dulbecco's Modified Eagle's medium (DMEM; Gibco) supplemented with 1% penicillin-streptomycin (P/S) solution, 500 μg/mL Zeocin and 10% charcoal/dextran-treated fetal bovine serum (cs-FBS) at 37° C. in a humidified 5% CO2 atmosphere. […] The day prior to transfection, the reporter cells in culture are detached from the plate with trypsin and plated into a T75 flask at a sufficient density to achieve approximately 90% confluence the next morning. […] The mixture is further diluted with 10 mL of a solution comprised of DMEM, 10% cs-FBS, and 1% P/S immediately prior to transferring to the cells. The maintenance culture media is aspirated from the cells and the final transfection mixture is added before the cells are incubated overnight at 37° C. in a humidified 5% CO2 atmosphere. This protocol can be scaled up, and the transiently transfected cells can be cryopreserved in an assay-ready format. For compound testing, 100 nL of the compounds (serial dilutions in DMSO) are dispensed with an Echo acoustic dispenser (Labcyte) into the wells of a Corning/Costar clear bottom 384-well white plate. The transfected cells are harvested, counted, and diluted such that 10-25,000 cells in 25 μL are plated into each well of the 384-well compound assay plate. The compound-treated cells are incubated overnight at 37° C. in a humidified 5% CO2 atmosphere. The next morning 25 μL of Steady-Glo (Promega) are added to each well of the plate, the mixture is incubated for 15 min. with shaking, and luminescence is measured on an Envision (Perkin Elmer) plate reader.
With `CC(C)(O)c1coc(-c2cccc(N(CC34CCC(c5nc(C6CC6)no5)(CC3)CC4)C(=O)C3CCCCC3)c2)n1` [Example 21, N-((4-(3-cyclopropyl-1,2,4-oxadiazol-5-yl)bicyclo[2.2.2]octan-1-yl)methyl)-N-(3-(4-(2-hydroxypropan-2-yl)oxazol-2-yl)phenyl)cyclohexanecarboxamide], the midpoint of the response, the EC50, lay at 194 nM.

The compound `O=C(C1CCCCC1)N(CC12CCC(c3nc(C4CC4)no3)(CC1)CC2)c1cccc(-c2cnc(C3CC3)o2)c1` [Example 22, N-((4-(3-cyclopropyl-1,2,4-oxadiazol-5-yl)bicyclo[2.2.2]octan-1-yl)methyl)-N-(3-(2-cyclopropyloxazol-5-yl)phenyl)cyclohexanecarboxamide] showed an EC50 of 37 nM.

Compound `O=C(C1CCOCC1)N(CC12CCC(c3nc(C4CC4)no3)(CC1)CC2)c1cccc(-c2cnc(C3CC3)o2)c1` [Example 23, N-((4-(3-cyclopropyl-1,2,4-oxadiazol-5-yl)bicyclo[2.2.2]octan-1-yl)methyl)-N-(3-(2-cyclopropyloxazol-5-yl)phenyl)tetrahydro-2H-pyran-4-carboxamide] yielded an EC50 of 74 nM.

For the compound `CN1CCC(C(=O)N(CC23CCC(c4nc(C5CC5)no4)(CC2)CC3)c2cccc(-c3cnc(C4CC4)o3)c2)CC1` [Example 24, N-((4-(3-cyclopropyl-1,2,4-oxadiazol-5-yl)bicyclo[2.2.2]octan-1-yl)methyl)-N-(3-(2-cyclopropyloxazol-5-yl)phenyl)-1-methylpiperidine-4-carboxamide], the EC50 is 4800 nM.

Regarding `O=C(C1CCC(F)(F)CC1)N(CC12CCC(c3nc(C4CC4)no3)(CC1)CC2)c1cccc(-c2cnc(C3CC3)o2)c1` [Example 26, N-((4-(3-cyclopropyl-1,2,4-oxadiazol-5-yl)bicyclo[2.2.2]octan-1-yl)methyl)-N-(3-(2-cyclopropyloxazol-5-yl)phenyl)-4,4-difluorocyclohexane-1-carboxamide], the midpoint of the response, the EC50, lay at 355 nM.

`CCOc1cc(-c2cccc(N(CC34CCC(c5nc(C6CC6)no5)(CC3)CC4)C(=O)C3CCCCC3)c2)no1` [Example 27, N-((4-(3-cyclopropyl-1,2,4-oxadiazol-5-yl)bicyclo[2.2.2]octan-1-yl)methyl)-N-(3-(5-ethoxyisoxazol-3-yl)phenyl)cyclohexanecarboxamide] showed an EC50 of 75 nM.

Consider `CCCc1ncc(-c2cccc(N(CC34CCC(c5nc(C6CC6)no5)(CC3)CC4)C(=O)C3CCCCC3)c2)o1` [Example 28, N-((4-(3-cyclopropyl-1,2,4-oxadiazol-5-yl)bicyclo[2.2.2]octan-1-yl)methyl)-N-(3-(2-propyloxazol-5-yl)phenyl)cyclohexanecarboxamide], for which the EC50 was found to be 34 nM.

Compound `CCCc1ncc(-c2cccc(N(CC34CCC(c5nc(C6CC6)no5)(CC3)CC4)C(=O)C3CCOCC3)c2)o1` [Example 29, N-((4-(3-cyclopropyl-1,2,4-oxadiazol-5-yl)bicyclo[2.2.2]octan-1-yl)methyl)-N-(3-(2-propyloxazol-5-yl)phenyl)tetrahydro-2H-pyran-4-carboxamide] returned an EC50 of 53 nM.

With `CCOC(=O)c1nc(-c2cccc(N(CC34CCC(c5nc(C6CC6)no5)(CC3)CC4)C(=O)C3CCCCC3)c2)cs1` [Example 31, Ethyl 4-(3-(N-((4-(3-cyclopropyl-1,2,4-oxadiazol-5-yl)bicyclo[2.2.2]octan-1-yl)methyl)cyclohexanecarboxamido)phenyl)thiazole-2-carboxylate], the EC50 was found to be 1200 nM.

As to `CC(C)(O)c1nc(-c2cccc(N(CC34CCC(c5nc(C6CC6)no5)(CC3)CC4)C(=O)C3CCCCC3)c2)cs1` [Example 32, N-((4-(3-cyclopropyl-1,2,4-oxadiazol-5-yl)bicyclo[2.2.2]octan-1-yl)methyl)-N-(3-(2-(2-hydroxypropan-2-yl)thiazol-4-yl)phenyl)cyclohexanecarboxamide], the midpoint of the response, the EC50, lay at 320 nM.

As to `Cc1noc(C23CCC(CN(C(=O)C4CCCCC4)c4cccc(-c5cnc(C6CCOCC6)o5)c4)(CC2)CC3)n1` [Example 33, N-((4-(3-methyl-1,2,4-oxadiazol-5-yl)bicyclo[2.2.2]octan-1-yl)methyl)-N-(3-(2-(tetrahydro-2H-pyran-4-yl)oxazol-5-yl)phenyl)cyclohexanecarboxamide], the EC50 turned out to be 949 nM.

Turning to `O=C(C1CCCCC1)N(CC12CCC(c3nc(C4CC4)no3)(CC1)CC2)c1cccc(-c2cnc(C3CCOCC3)o2)c1` [Example 34, N-((4-(3-cyclopropyl-1,2,4-oxadiazol-5-yl)bicyclo[2.2.2]octan-1-yl)methyl)-N-(3-(2-(tetrahydro-2H-pyran-4-yl)oxazol-5-yl)phenyl)cyclohexanecarboxamide], a half-maximal effect (EC50) was put at 212 nM.

For `Cc1cnc(C23CCC(CN(C(=O)C4CCCCC4)c4cccc(-c5nc(C6CC6)no5)c4)(CC2)CC3)o1` [Example 35, N-(3-(3-cyclopropyl-1,2,4-oxadiazol-5-yl)phenyl)-N-((4-(5-methyloxazol-2-yl)bicyclo[2.2.2]octan-1-yl)methyl)cyclohexanecarboxamide], the midpoint of the response, the EC50, lay at 515 nM.

The compound `O=C(C1CCOCC1)N(CC12CCC(c3nc(C4CC4)no3)(CC1)CC2)c1cccc(-c2nc(C(F)F)co2)c1` [Example 36, N-((4-(3-cyclopropyl-1,2,4-oxadiazol-5-yl)bicyclo[2.2.2]octan-1-yl)methyl)-N-(3-(4-(difluoromethyl)oxazol-2-yl)phenyl)tetrahydro-2H-pyran-4-carboxamide] showed an EC50 of 525 nM.

Take `O=C(C1CCCCC1)N(CC12CCC(c3nc(C4CC4)no3)(CC1)CC2)c1cccc(-c2nc(C(F)F)co2)c1` [Example 37, N-((4-(3-cyclopropyl-1,2,4-oxadiazol-5-yl)bicyclo[2.2.2]octan-1-yl)methyl)-N-(3-(4-(difluoromethyl)oxazol-2-yl)phenyl)cyclohexanecarboxamide]: the EC50 is 166 nM.

Compound `CC(C)(C)OC(=O)N1CCC(C(=O)N(CC23CCC(c4nc(C5CC5)no4)(CC2)CC3)c2cccc(-c3nc(C(F)F)co3)c2)CC1` [Example 38, tert-butyl 4-(((4-(3-cyclopropyl-1,2,4-oxadiazol-5-yl)bicyclo[2.2.2]octan-1-yl)methyl)(3-(4-(difluoromethyl)oxazol-2-yl)phenyl)carbamoyl) piperidine-1-carboxylate] showed an EC50 of 4390 nM.

For the compound `CCOc1nnc(-c2cccc(N(CC34CCC(c5nc(C6CC6)no5)(CC3)CC4)C(=O)C3CCC(F)(F)CC3)c2)o1` [Example 39, N-((4-(3-cyclopropyl-1,2,4-oxadiazol-5-yl)bicyclo[2.2.2]octan-1-yl)methyl)-N-(3-(5-ethoxy-1,3,4-oxadiazol-2-yl)phenyl)-4,4-difluorocyclohexane-1-carboxamide], the EC50 was found to be 130 nM.

Take `O=C(C1CCOCC1)N(CC12CCC(c3nc(C4CC4)no3)(CC1)CC2)c1cccc(-c2cc(C3CC3)on2)c1` [Example 40, N-((4-(3-cyclopropyl-1,2,4-oxadiazol-5-yl)bicyclo[2.2.2]octan-1-yl)methyl)-N-(3-(5-cyclopropylisoxazol-3-yl)phenyl)tetrahydro-2h-pyran-4-carboxamide]: the EC50 was found to be 78 nM.

The compound `O=C(C1CCOCC1)N(CC12CCC(c3nc(CC4CC4)no3)(CC1)CC2)c1cccc(-c2nc(CC3CC3)no2)c1` [Example 41, N-((4-(3-(cyclopropylmethyl)-1,2,4-oxadiazol-5-yl)bicyclo[2.2.2]octan-1-yl)methyl)-N-(3-(3-(cyclopropylmethyl)-1,2,4-oxadiazol-5-yl)phenyl)tetrahydro-2H-pyran-4-carboxamide] returned a half-maximal effective concentration (EC50) of 229 nM.

Take `O=C(C1CCC(F)(F)CC1)N(CC12CCC(c3nc(CC4CC4)no3)(CC1)CC2)c1cccc(-c2nc(CC3CC3)no2)c1` [Example 42, N-((4-(3-(cyclopropylmethyl)-1,2,4-oxadiazol-5-yl)bicyclo[2.2.2]octan-1-yl)methyl)-N-(3-(3-(cyclopropylmethyl)-1,2,4-oxadiazol-5-yl)phenyl)-4,4-difluorocyclohexane-1-carboxamide]: it took 536 nM to reach a half-maximal effect (EC50).

In turn, `O=C(C1CCC(F)(F)CC1)N(CC12CCC(c3nc(C4CC4)no3)(CC1)CC2)c1cccc(-c2nc(CC3CC3)no2)c1` [Example 43, N-((4-(3-cyclopropyl-1,2,4-oxadiazol-5-yl)bicyclo[2.2.2]octan-1-yl)methyl)-N-(3-(3-(cyclopropylmethyl)-1,2,4-oxadiazol-5-yl)phenyl)-4,4-difluorocyclohexane-1-carboxamide] yielded an EC50 of 379 nM.
